Key:
[1] = molecular target: T1, HiBit-BRG1 fusion protein (Homo sapiens, UniProt P51532); experiment: HiBiT-BRG1 cell-based degradation assay (Nano-Glo HiBiT Lytic Detection, 24 h); details: HeLa cells expressing HiBit-BRG1 and LgBit; for DC50: read-out: BRG1 HiBit Degradation IC50; for Dmax: HeLa, top dose 30 μM, read-out: BRG1 HiBit Degradation Maximum measured
T1 construct: expressed in transfected cells
Method in brief: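 Degradation is scaled from DMSO-treated cells (0%) to cells given 2 μM of a known BRM/BRG1 degrader (100%). HeLa cells stably carrying HiBiT-BRG1 plus LgBiT (5000/well) were lysed with Nano-Glo HiBiT detection reagent, shaken 10 min at RT, and luminescence read.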

HiBit-BRM fusion protein = molecular target: T2, HiBit-BRM fusion protein (Homo sapiens, UniProt P51531); experiment: HiBiT-BRM cell-based degradation assay (Nano-Glo HiBiT Lytic Detection, 24 h); details: HeLa cells expressing HiBiT-BRM; for DC50: read-out: BRM HiBit Degradation IC50; for BRM HiBit Degradation Maximum measured: top dose 30 μM
T2 construct: expressed in transfected cells
Method in brief: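 Percent BRM loss was derived from HiBiT luminescence relative to DMSO-treated cells and cells given 2 μM of a known BRM/BRG1 degrader. Treatment lasted 24 h in HiBiT-BRM HeLa cells, with a top final concentration of 30 μM.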

T1 sequence (P51532 whole entry, the tested form may be a part): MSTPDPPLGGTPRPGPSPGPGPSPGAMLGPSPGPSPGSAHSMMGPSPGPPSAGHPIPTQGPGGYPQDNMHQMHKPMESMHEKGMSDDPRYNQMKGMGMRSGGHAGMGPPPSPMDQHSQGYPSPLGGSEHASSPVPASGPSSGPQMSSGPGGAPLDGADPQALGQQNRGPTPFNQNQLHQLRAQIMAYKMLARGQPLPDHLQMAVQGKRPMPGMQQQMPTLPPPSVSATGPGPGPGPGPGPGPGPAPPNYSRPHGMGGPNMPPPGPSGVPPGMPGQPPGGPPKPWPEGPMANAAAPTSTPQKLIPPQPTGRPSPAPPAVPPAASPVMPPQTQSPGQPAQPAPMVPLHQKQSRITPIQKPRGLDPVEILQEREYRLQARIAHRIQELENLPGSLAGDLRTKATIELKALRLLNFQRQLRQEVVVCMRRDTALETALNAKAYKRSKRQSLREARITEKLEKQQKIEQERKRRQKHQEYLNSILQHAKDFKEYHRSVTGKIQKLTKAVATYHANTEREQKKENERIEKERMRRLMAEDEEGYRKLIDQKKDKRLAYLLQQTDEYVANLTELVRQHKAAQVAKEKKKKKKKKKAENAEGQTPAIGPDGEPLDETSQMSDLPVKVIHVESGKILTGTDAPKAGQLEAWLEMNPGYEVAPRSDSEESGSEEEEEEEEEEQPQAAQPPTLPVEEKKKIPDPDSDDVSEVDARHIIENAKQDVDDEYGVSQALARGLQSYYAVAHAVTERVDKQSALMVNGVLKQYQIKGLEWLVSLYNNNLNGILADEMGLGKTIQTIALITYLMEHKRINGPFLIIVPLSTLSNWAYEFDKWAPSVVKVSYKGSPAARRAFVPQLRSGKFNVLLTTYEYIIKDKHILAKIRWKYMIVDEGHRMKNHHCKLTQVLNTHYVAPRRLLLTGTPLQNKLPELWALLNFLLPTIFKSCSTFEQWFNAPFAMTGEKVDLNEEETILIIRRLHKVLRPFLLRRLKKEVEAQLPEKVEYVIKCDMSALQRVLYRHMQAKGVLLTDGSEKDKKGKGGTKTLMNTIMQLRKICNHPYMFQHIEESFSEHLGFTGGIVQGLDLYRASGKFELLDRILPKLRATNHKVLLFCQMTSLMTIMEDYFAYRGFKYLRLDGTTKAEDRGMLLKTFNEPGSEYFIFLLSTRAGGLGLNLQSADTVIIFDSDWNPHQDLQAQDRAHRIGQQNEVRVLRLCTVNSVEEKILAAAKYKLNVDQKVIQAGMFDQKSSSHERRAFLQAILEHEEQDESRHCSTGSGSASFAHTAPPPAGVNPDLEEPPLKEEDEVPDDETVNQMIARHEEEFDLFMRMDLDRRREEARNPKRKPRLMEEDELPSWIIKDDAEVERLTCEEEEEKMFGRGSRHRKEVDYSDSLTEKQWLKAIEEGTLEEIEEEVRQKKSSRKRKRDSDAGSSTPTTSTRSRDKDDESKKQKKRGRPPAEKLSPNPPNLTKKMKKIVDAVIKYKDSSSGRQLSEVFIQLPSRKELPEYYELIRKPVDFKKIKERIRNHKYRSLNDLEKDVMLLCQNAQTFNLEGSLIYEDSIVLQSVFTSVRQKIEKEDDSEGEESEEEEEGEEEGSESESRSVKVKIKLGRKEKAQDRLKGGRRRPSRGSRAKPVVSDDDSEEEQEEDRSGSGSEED
T2 sequence (P51531 whole entry, the tested form may be a part): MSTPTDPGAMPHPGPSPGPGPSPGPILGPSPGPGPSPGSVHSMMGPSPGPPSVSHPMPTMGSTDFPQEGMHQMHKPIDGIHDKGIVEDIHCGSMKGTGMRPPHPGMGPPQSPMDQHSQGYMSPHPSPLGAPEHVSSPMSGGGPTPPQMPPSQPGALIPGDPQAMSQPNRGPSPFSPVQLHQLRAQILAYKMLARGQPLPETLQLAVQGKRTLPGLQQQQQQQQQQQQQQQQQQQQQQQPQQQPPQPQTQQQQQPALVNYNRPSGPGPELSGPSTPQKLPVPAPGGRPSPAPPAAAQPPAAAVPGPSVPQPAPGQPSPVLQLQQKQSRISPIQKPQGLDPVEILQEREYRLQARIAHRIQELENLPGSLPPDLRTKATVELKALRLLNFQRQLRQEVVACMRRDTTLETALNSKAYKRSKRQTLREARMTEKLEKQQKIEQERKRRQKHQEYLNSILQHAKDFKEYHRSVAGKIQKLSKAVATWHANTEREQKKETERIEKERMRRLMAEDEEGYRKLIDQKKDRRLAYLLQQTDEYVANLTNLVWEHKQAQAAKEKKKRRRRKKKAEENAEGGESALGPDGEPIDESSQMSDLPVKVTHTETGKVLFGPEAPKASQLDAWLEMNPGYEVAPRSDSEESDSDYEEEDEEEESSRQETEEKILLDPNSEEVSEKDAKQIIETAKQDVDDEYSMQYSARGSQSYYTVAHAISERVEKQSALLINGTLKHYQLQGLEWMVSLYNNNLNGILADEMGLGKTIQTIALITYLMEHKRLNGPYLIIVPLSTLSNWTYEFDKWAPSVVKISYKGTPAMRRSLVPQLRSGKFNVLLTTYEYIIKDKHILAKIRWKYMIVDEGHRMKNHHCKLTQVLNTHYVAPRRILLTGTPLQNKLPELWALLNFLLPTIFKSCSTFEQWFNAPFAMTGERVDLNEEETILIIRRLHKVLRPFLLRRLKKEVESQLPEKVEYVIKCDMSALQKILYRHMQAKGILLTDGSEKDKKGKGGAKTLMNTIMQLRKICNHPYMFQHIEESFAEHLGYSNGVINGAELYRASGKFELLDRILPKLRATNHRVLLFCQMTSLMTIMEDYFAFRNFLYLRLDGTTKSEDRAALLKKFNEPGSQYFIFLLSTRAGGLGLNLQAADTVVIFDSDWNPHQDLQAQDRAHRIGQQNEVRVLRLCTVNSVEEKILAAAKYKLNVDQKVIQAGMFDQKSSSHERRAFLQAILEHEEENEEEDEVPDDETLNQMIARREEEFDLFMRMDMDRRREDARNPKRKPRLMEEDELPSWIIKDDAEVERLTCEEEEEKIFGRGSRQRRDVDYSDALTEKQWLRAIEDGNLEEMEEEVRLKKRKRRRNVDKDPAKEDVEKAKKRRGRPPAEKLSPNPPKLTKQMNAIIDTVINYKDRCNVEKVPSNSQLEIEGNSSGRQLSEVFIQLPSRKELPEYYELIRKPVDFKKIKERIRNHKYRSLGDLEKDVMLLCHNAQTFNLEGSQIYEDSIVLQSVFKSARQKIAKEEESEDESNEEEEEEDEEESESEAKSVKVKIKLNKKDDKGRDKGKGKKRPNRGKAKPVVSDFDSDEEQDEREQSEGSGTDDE

DC50 [1] | Dmax [1] | DC50 (HiBit-BRM fusion protein) | BRM HiBit Degradation Maximum measured (HiBit-BRM fusion protein) | SMILES
> 10 µM | < 50% | > 10 µM | C (‘C’ = Maximum degradation <50%) | Cc1ncsc1-c1ccc(CNC(=O)[C@@H]2C[C@@H](O)CN2C(=O)[C@@H](NC(=O)COCCOCCOCCNC(=O)CCCOC[C@H](NC(=O)c2ccn(S(C)(=O)=O)c2)C(=O)Nc2nc(-c3ccccc3)cs2)C(C)(C)C)cc1 [Compound 225, (2S,4R)-4-hydroxy-1-[(2S)-2-(2-[2-[2-(2-[4-[(2S)-2-[(1-methanesulfonylpyrrol-3-yl)formamido]-2-[(4-phenyl-1,3-thiazol-2-yl)carbamoyl]ethoxy]butanamido]ethoxy)ethoxy]ethoxy]acetamido)-3,3-dimethylbutanoyl]-N-[[4-(4-methyl-1,3-thiazol-5-yl)phenyl]methyl]pyrrolidine-2-carboxamide]
> 10 µM | < 50% | > 10 µM | C (‘C’ = Maximum degradation <50%) | Cc1ncsc1-c1ccc(CNC(=O)[C@@H]2C[C@@H](O)CN2C(=O)[C@@H](NC(=O)CCCCCNC(=O)CCCOC[C@H](NC(=O)c2ccn(S(C)(=O)=O)c2)C(=O)Nc2nc(-c3ccccc3)cs2)C(C)(C)C)cc1 [Compound 226, (2S,4R)-4-hydroxy-1-[(2S)-2-(6-[4-[(2S)-2-[(1-methanesulfonylpyrrol-3-yl)formamido]-2-[(4-phenyl-1,3-thiazol-2-yl)carbamoyl]ethoxy]butanamido]hexanamido)-3,3-dimethylbutanoyl]-N-[[4-(4-methyl-1,3-thiazol-5-yl)phenyl]methyl]pyrrolidine-2-carboxamide]
> 10 µM | < 50% | > 10 µM | C (‘C’ = Maximum degradation <50%) | Cc1ncsc1-c1ccc(CNC(=O)[C@@H]2C[C@@H](O)CN2C(=O)[C@@H](NC(=O)CCCCCCCNC(=O)CCCOC[C@H](NC(=O)c2ccn(S(C)(=O)=O)c2)C(=O)Nc2nc(-c3ccccc3)cs2)C(C)(C)C)cc1 [Compound 227, (2S,4R)-4-hydroxy-1-[(2S)-2-(8-[4-[(2S)-2-[(1-methanesulfonylpyrrol-3-yl)formamido]-2-[(4-phenyl-1,3-thiazol-2-yl)carbamoyl]ethoxy]butanamido]octanamido)-3,3-dimethylbutanoyl]-N-[[4-(4-methyl-1,3-thiazol-5-yl)phenyl]methyl]pyrrolidine-2-carboxamide]
> 10 µM | < 50% | > 10 µM | C (‘C’ = Maximum degradation <50%) | CS(=O)(=O)n1ccc(C(=O)N[C@@H](COCCCC(=O)NCCOc2ccc3c(c2)C(=O)N(C2CCC(=O)NC2=O)C3=O)C(=O)Nc2nc(-c3ccccc3)cs2)c1 (some centres unmarked) [Compound 228]
> 10 µM | < 50% | > 10 µM | C (‘C’ = Maximum degradation <50%) | CS(=O)(=O)n1ccc(C(=O)N[C@@H](COCCCC(=O)NCCCCNc2ccc3c(c2)C(=O)N(C2CCC(=O)NC2=O)C3=O)C(=O)Nc2nc(-c3ccccc3)cs2)c1 (stereo partly drawn) [Compound 229, N-(4-[[2-(2,6-dioxopiperidin-3-yl)-1,3-dioxoisoindol-5-yl]amino]butyl)-4-[(2S)-2-[(1-methanesulfonylpyrrol-3-yl)formamido]-2-[(4-phenyl-1,3-thiazol-2-yl)carbamoyl]ethoxy]butanamide]
> 10 µM | < 50% | > 10 µM | C (‘C’ = Maximum degradation <50%) | CS(=O)(=O)n1ccc(C(=O)N[C@@H](COCCCC(=O)NCCCCCCNc2ccc3c(c2)C(=O)N(C2CCC(=O)NC2=O)C3=O)C(=O)Nc2nc(-c3ccccc3)cs2)c1 (stereo partly drawn) [Compound 230, N-(6-[[2-(2,6-dioxopiperidin-3-yl)-1,3-dioxoisoindol-5-yl]amino]hexyl)-4-[(2S)-2-[(1-methanesulfonylpyrrol-3-yl)formamido]-2-[(4-phenyl-1,3-thiazol-2-yl)carbamoyl]ethoxy]butanamide]
> 10 µM | < 50% | > 10 µM | C (‘C’ = Maximum degradation <50%) | CS(=O)(=O)n1ccc(C(=O)N[C@@H](COCc2ccc(C(=O)N3CCN(CC4CN(c5ccc6c(c5)C(=O)N(C5CCC(=O)NC5=O)C6=O)C4)CC3)cc2)C(=O)Nc2nc(-c3ccccc3)cs2)c1.O=CO (stereo partly drawn) [Compound 231, (2S)-3-([4-[4-([1-[2-(2,6-dioxopiperidin-3-yl)-1,3-dioxoisoindol-5-yl]azetidin-3-yl]methyl)piperazine-1-carbonyl]phenyl]methoxy)-2-[(1-methanesulfonylpyrrol-3-yl)formamido]-N-(4-phenyl-1,3-thiazol-2-yl)propanamide; formic acid]
> 10 µM | < 50% | > 10 µM | C (‘C’ = Maximum degradation <50%) | Cc1ncsc1-c1ccc(CNC(=O)[C@@H]2C[C@@H](O)CN2C(=O)[C@@H](NC(=O)CCCCCNC(=O)c2ccc(COC[C@H](NC(=O)c3ccn(S(C)(=O)=O)c3)C(=O)Nc3nc(-c4ccccc4)cs3)cc2)C(C)(C)C)cc1 [Compound 232, (2S,4R)-4-hydroxy-1-[(2S)-2-[6-[(4-[[(2S)-2-[(1-methanesulfonylpyrrol-3-yl)formamido]-2-[(4-phenyl-1,3-thiazol-2-yl)carbamoyl]ethoxy]methyl]phenyl)formamido]hexanamido]-3,3-dimethylbutanoyl]-N-[[4-(4-methyl-1,3-thiazol-5-yl)phenyl]methyl]pyrrolidine-2-carboxamide]
0.1 to 1 µM | 50 to 75% | > 10 µM | C (‘C’ = Maximum degradation <50%) | CS(=O)(=O)n1ccc(C(=O)N[C@@H](COCc2ccc(C(=O)N3CCN(CCCCCOc4ccc5c(c4)C(=O)N(C4CCC(=O)NC4=O)C5=O)CC3)cc2)C(=O)Nc2nc(-c3ccccc3)cs2)c1 (stereo partly drawn) [Compound 233, (2S)-3-([4-[4-(5-[[2-(2,6-dioxopiperidin-3-yl)-1,3-dioxoisoindol-5-yl]oxy]pentyl)piperazine-1-carbonyl]phenyl]methoxy)-2-[(1-methanesulfonylpyrrol-3-yl)formamido]-N-(4-phenyl-1,3-thiazol-2-yl)propanamide]
> 10 µM | < 50% | > 10 µM | C (‘C’ = Maximum degradation <50%) | CS(=O)(=O)n1ccc(C(=O)N[C@@H](COCc2ccc(C(=O)N3CCN(CCCOc4ccc5c(c4)C(=O)N(C4CCC(=O)NC4=O)C5=O)CC3)cc2)C(=O)Nc2nc(-c3ccccc3)cs2)c1 (stereo partly drawn) [Compound 235, (2S)-3-([4-[4-(3-[[2-(2,6-dioxopiperidin-3-yl)-1,3-dioxoisoindol-5-yl]oxy]propyl)piperazine-1-carbonyl]phenyl]methoxy)-2-[(1-methanesulfonylpyrrol-3-yl)formamido]-N-(4-phenyl-1,3-thiazol-2-yl)propanamide]
> 10 µM | < 50% | > 10 µM | C (‘C’ = Maximum degradation <50%) | CS(=O)(=O)n1ccc(C(=O)N[C@@H](COCc2ccc(C(=O)NCCOCCOCCOCCNC(=O)COc3cccc4c3C(=O)N(C3CCC(=O)NC3=O)C4=O)cc2)C(=O)Nc2nc(-c3ccccc3)cs2)c1 (stereo partly drawn) [Compound 236, N-((2S)-3-((4-((1-((2-(2,6-dioxopiperidin-3-yl)-1,3-dioxoisoindolin-4-yl)oxy)-2-oxo-6,9,12-trioxa-3-azatetradecan-14-yl)carbamoyl)benzyl)oxy)-1-oxo-1-((4-phenylthiazol-2-yl)amino)propan-2-yl)-1-(methylsulfonyl)-1H-pyrrole-3-carboxamide]

SMILES | DC50 [1] | Dmax [1] | DC50 (HiBit-BRM fusion protein) | BRM HiBit Degradation Maximum measured (HiBit-BRM fusion protein)
CS(=O)(=O)n1ccc(C(=O)N[C@@H](CCOCCCC(=O)N2CC(CCOc3cccc4c3C(=O)N(C3CCC(=O)NC3=O)C4=O)C2)C(=O)Nc2nc(-c3ccccc3)cs2)c1 (stereo partly drawn) [Compound 224, (2S)-4-[4-[3-(2-[[2-(2,6-dioxopiperidin-3-yl)-1,3-dioxoisoindol-4-yl]oxy]ethyl)azetidin-1-yl]-4-oxobutoxy]-2-[(1-methanesulfonylpyrrol-3-yl)formamido]-N-(4-phenyl-1,3-thiazol-2-yl)butanamide] | > 10 µM | < 50% | > 10 µM | C (‘C’ = Maximum degradation <50%)
CS(=O)(=O)n1ccc(C(=O)N[C@@H](COCc2ccc(C(=O)N3CC4(CCN(CCCNc5ccc6c(c5)C(=O)N(C5CCC(=O)NC5=O)C6=O)CC4)C3)cc2)C(=O)Nc2nc(-c3ccccc3)cs2)c1 (stereo partly drawn) [Compound 234, (2S)-3-([4-[7-(3-[[2-(2,6-dioxopiperidin-3-yl)-1,3-dioxoisoindol-5-yl]amino]propyl)-2,7-diazaspiro[3.5]nonane-2-carbonyl]phenyl]methoxy)-2-[(1-methanesulfonylpyrrol-3-yl)formamido]-N-(4-phenyl-1,3-thiazol-2-yl)propanamide] | 0.1 to 1 µM | 50 to 75% | 0.1 to 1 µM | B (‘B’ = Maximum degradation ≥50% and ≤75%)
CS(=O)(=O)n1ccc(C(=O)N[C@@H](COCc2ccc(C(=O)NCCOCc3cccc(COCCOc4ccc5c(c4)C(=O)N(C4CCC(=O)NC4=O)C5=O)c3)cc2)C(=O)Nc2nc(-c3ccccc3)cs2)c1 (stereo partly drawn) [Compound 237, N-[2-([3-[(2-[[2-(2,6-dioxopiperidin-3-yl)-1,3-dioxoisoindol-5-yl]oxy]ethoxy)methyl]phenyl]methoxy)ethyl]-4-[[(2S)-2-[(1-methanesulfonylpyrrol-3-yl)formamido]-2-[(4-phenyl-1,3-thiazol-2-yl)carbamoyl]ethoxy]methyl]benzamide] | 0.1 to 1 µM | 50 to 75% | 0.1 to 1 µM | B (‘B’ = Maximum degradation ≥50% and ≤75%)

From patent US12662479B2 (Foghorn Therapeutics Inc., priority 2020, dated 2026)
